± gives the uncertainty stated by the source.
Experiment: xn = mol fraction of the nth substance listed
Details: 101 kPa

CCCCCCCCCCO + CS(C)=O
313 K
Details | viscosity [mPa·s]
x2 = 0.0732 | 5.748 ± 0.15
x2 = 0.2168 | 4.662 ± 0.12
x2 = 0.3082 | 4.127 ± 0.11
x2 = 0.3986 | 3.711 ± 0.097
x2 = 0.5096 | 3.248 ± 0.085
x2 = 0.5918 | 2.964 ± 0.077
x2 = 0.6951 | 2.596 ± 0.067
x2 = 0.8064 | 2.203 ± 0.057
x2 = 0.9009 | 1.838 ± 0.048

CCOC(=O)OCC + CS(C)=O
308.15 K
Details | viscosity [mPa·s]
x2 = 0.0902 | 0.7 ± 0.008
x2 = 0.1358 | 0.719 ± 0.009
x2 = 0.2655 | 0.789 ± 0.009
x2 = 0.3678 | 0.836 ± 0.01
x2 = 0.468 | 0.928 ± 0.011
x2 = 0.5579 | 1.006 ± 0.012
x2 = 0.6013 | 1.047 ± 0.012
x2 = 0.6456 | 1.093 ± 0.013
x2 = 0.7167 | 1.172 ± 0.014
x2 = 0.7783 | 1.249 ± 0.015
x2 = 0.8439 | 1.344 ± 0.016
x2 = 0.9239 | 1.487 ± 0.017

Source: the CheMixHub viscosity set
